{"source": "patent US20240082192A1", "about": "“TOPICAL F[…] PREGABALIN” (EGIS GYÓGYSZERGYÁR ZRT., priority 2021, published 2024)", "key": {"human patient": {"test_system": "human patient", "conditions": "same aqueous solution; cited from earlier work"}, "Wistar rats": {"test_system": "Wistar rats", "experiment": "Chronic constriction injury (CCI) rat model of neuropathy, paw withdrawal threshold with electronic von Frey device", "format": "in vivo", "conditions": "16.66 mg/kg", "description": "Furthermore, based on the article Bennett G J, at al (Pain., A peripheral mononeuropathy in rat that produces disorders of pain sensation like those seen in man. 1988 April; 33(1):87-107) we have developed a method for the examination of the compositions of the present invention. Thus, we have examined the compositions according to the present invention also with a different model for measuring the alleviation of the peripheral neuropathic pain also. Namely, we have carried out examinations on rats using Chronic constriction injury (CCI) model. Three weeks following nerve injury rats were assessed for hind paw mechanical withdrawal thresholds. The paw withdrawal threshold (PWT) was determined with an Electronic von Frey device according to the modified up-down method of Dixon (Efficient analysis of experimental observations., Annu Rev Pharmacol Toxicol. 1980; 20:441-62). […] The method and results are shown in example 3 and on FIG. 9.\nThus, the compositions of the present invention are effective in the treatment of neuropathic pain. […]\nBriefly, under isoflurane anesthesia small blunt dissection was made into the skin of rat right thigh then three loosely constrictive ligatures were placed around common sciatic nerve (chronic constriction injury CCI). Three weeks following nerve injury rats were assessed for hind paw mechanical withdrawal thresholds. […]"}, "[1]": {"conditions": "compositions containing 1 and 3% of pregabalin; cited from earlier work"}, "[2]": {"experiment": "Pharmacokinetic studies, blood level of pregabalin after oral or topical administration"}, "Mouse": {"test_system": "Mouse", "conditions": "topical 2.5% aqueous solution without other ingredients; cited from earlier work"}}}
{"smiles": "CC(C)C[C@H](CN)CC(=O)O", "note": "[pregabalin]", "values": [{"measurement": "duration of reduction of neuropathic pain", "setting": "human patient", "result": 6, "unit": "h"}, {"measurement": "reduction of hypersensitivity after oral administration", "setting": "Wistar rats", "result": "not able to reduce hypersensitivity"}, {"measurement": "time after which the pain alleviation effect decreased", "setting": "[1]", "result": "1.5 to 2", "unit": "h"}, {"measurement": "amount entering the bloodstream during topical treatment", "setting": "[2]", "result": "very small amounts"}, {"measurement": "alleviating effect 6 hours after administration", "setting": "Mouse", "result": "the effect essentially disappeared"}, {"measurement": "time of maximum alleviating effect", "setting": "Mouse", "result": 1, "unit": "h"}]}
